Experimental data as given in US11154551B2, “HDAC1,2 inhibitors and methods of using the same” (UNIVERSITY OF UTAH RESEARCH FOUNDATION, priority 2014, dated 2021).
Entries after “also recorded” stand apart in the source; their conditions may differ.

Tests used:
[1] = test system: Hdac1,2; experiment: in vitro enzyme assays, IC50 determination (FIG. 17A); assay type: biochemical
Procedure: (§1) (A). For IC50 determination, recombinant HDAC enzymes were treated with HDAC1,2 or HDAC3 inhibitors in in vitro HDAC assays. (B). Western blots for H3K23ac using extracts from Pre-B-ALL SupB15 cells treated with increasing dose of HDAC1,2 inhibitor (ACY1035). (C). Hdac1^FI/FI, 2^FI/FI cells were infected with Ad-Cre virus to delete HDAC1 and HDAC2 (HDAC1,2 null) or uninfected (WT). (D). Hdac3^FI/FI cells were either uninfected (WT) or infected with Ad-Cre virus to delete Hdac3. HDAC3-null cells were treated with DMSO or the HDAC1,2 selective inhibitor.
We have determined 2 μM (FIG. 17B) as the minimum dose for the ACY compounds, respectively, that when added to cells increased H3K23ac (a mark targeted by Hdac1,2 but not Hdac3).

[2] = test system: SupB15 (Ph+PreB-ALL) cells; experiment: γH2AX immunofluorescence; assay type: cell-based, human; conditions: 2 μM, 48 hours
Procedure: SupB15 cells were treated with 2 μM ACY1035, ACY1071, ACY957, or solvent (DMSO) for 48 hours. (A) Immunofluorescence with γH2AX was performed on treated SupB15 cells. The number of γH2AX foci was counted in around 100 cells for each treatment and classified into cells with no foci, 1-5, 6-10, and greater than 10 foci. (B) SupB15 cells treated with DMSO or ACY1035 for 48 hours were tested via neutral comet assay to measure the amount of double-strand breaks (DSBs), indicated by the tail.
BCR-ABL promotes DNA repair to prevent DNA damage accumulation in Philadelphia chromosome-positive (Ph+) leukemia cells. To examine the effect of various HDAC1,2-selective inhibitors on DNA repair and DNA damage response in Pre-B-ALL cells that express BCR-ABL, SupB15 (Ph+PreB-ALL) cells were treated with 2 μM ACY1035 or 2 μM ACY1071 or 2 μM ACY957 for 48 hours.

[3] = test system: SUDHL4 and Karpas-422 cells; experiment: Western blot of γH2AX on chromatin, with or without ionizing radiation; assay type: cell-based, human; conditions: 48 hr, Western
Procedure: (§2) The percentage of cells with 6 or greater γH2AX foci were counted in three independent experiments and at least 100 cells were counted in each experiment. […] Histones were purified using trichloroacetic acid extraction protocol (see Example 1). Western blot analysis was done with anti-γH2AX and histone H2AX served as the loading control. […] Following DMSO or ACY957 treatment, cells were exposed to a 5Gy dose of ionizing radiation and allowed to recover for 30 minutes prior to chromatin extraction. Western blot analysis was done with anti-γH2AX where total histone H2AX served as a loading control. (D): Karpas-422 cells were micro-irradiated with laser and allowed to recover for 15 minutes before fixation and immunofluorescence staining with anti-γH2AX, anti-HDAC1 and anti-HDAC2 antibodies was done.

[4] = test system: SUDHL4 and Karpas-422 cells; experiment: γH2AX foci formation by immunofluorescence; assay type: cell-based, human; conditions: 48 h; 2 μM ACY-957, 0.5 μM DZNEP, 0.5 μM GSK126
Procedure: as §2
Immunofluorescence. Cells were fixed in either 10% formalin or methanol-acetone (1:1) for 10 min at −20*C. The cells were then permeabilized with 0.5% Triton-X-100 in PBS for 5 min at room temperature (RT), blocked in 10% normal goat serum (Sigma) for 30 min and stained with primary antibody for 1 h at RT. Cells were incubated with secondary antibody (anti-mouse or anti-rabbit IgG, Alexa Fluor 488/546) at a 1:600 dilution for 45 min at RT, and counterstained with Hoechst 33342 (Sigma) at 1:1000 dilution to visualize the nuclei. Images were captured using Zeiss Axioskop mot plus microscope with a 40× lens and analyzed using the AxioVision software.

[5] = test system: SUDHL4 cells; experiment: propidium-iodide / BrdU-PI cell cycle analysis; assay type: cell-based, human; conditions: for progression through the cell cycle: 24 h; for progression through the cell cycle / cell cycle / G1 arrest and sub-G1: 2 μM ACY-957, 0.5 μM DZNEP, 0.5 μM GSK126; for cell cycle / G1 arrest and sub-G1: 72 h
Procedure: (§3) (B): Quantitation of the cell cycle data in (A), compiled from three independent analyses. The graphs plotted the average percentage of cells in each phase of the cell cycle. […] (C): FACS analysis following BrdU-PI staining of Karpas-422 and SUDHL4 cells was performed following a 48 h or 72 h treatment with ACY-957.
(§4) (B): Quantitation of the cell cycle analysis performed in (A). Data from three independent cell cycle analyses were compiled and average percentage cells with standard errors were shown in this panel.
(§5) Propidium-iodide Cell Cycle Analysis.
(§6) Since these DLBCL cells expressed a hyperactive form of EZH2, pharmacological inhibition of EZH2 activity was considered a therapeutic strategy. […] GSK126 was a S-adenosyl-methionine-competitive inhibitor of EZH2 methyltransferase activity, and DZNep was a S-adenosylhomocysteine hydrolase inhibitor that disrupted the components of the PRC2 complex, thereby causing reduced chromatin-associated EZH2 levels.

[6] = test system: Karpas-422 and SUDHL4 cells; experiment: Western blot of chromatin extracts for H3K27ac and H3K27me3; assay type: cell-based, human; conditions: 48 h, chromatin extracts
Procedure: Western blot analysis was done with anti-H3K27ac, H3K27me3 or EZH2 and histone H3 served as a loading control.
Following DMSO or ACY-957 treatment, cells were exposed to a 5Gy dose of ionizing radiation and allowed to recover for 30 minutes prior to chromatin extraction. Western blots were performed with anti-H3K27ac or anti-H3K27me3 with histone H3 serving as a loading control. (B-E): Karpas-422, SUDHL4, WSU-DLCL2 and HeLa cells were laser micro-irradiated and allowed to recover for 15 minutes before fixation and immunofluorescence staining with anti-γH2AX and anti-H3K27me3. Subsequently, the percentage of cells with H3K27me3 lines that co-localized with γH2AX were counted. Merge is the overlay of γH2AX and H3K27me3 pictures. (F-I): At least 100 cells with γH2AX lines were counted in each experiment. The quantitation shown was the average calculated from independent experiments+/−standard error. Quantitation from five, seven, five and six independent experiments performed in Karpas-422, SUDHL4, WSU-DLCL2 and HeLa cells, respectively, was used in the graph shown in this figure. (J): Karpas-422 cells were micro-irradiated with a laser and allowed to recover for 15 minutes before fixation and immunofluorescence staining was performed with anti-γH2AX and anti-H3K27ac.
Protein Preparation and Western Blot Analysis.
The histone H3K27 residue was subjected to reversible acetylation and methylation. […] We also treated cells with the second EZH2 inhibitor, GSK126 alone, or combined with ACY-957 (ACY-957+GSK126). […] Cells were treated for 48 h prior to preparing chromatin extracts for Western analysis using antibodies recognizing H3K27ac or H3K27me3.
We first examined whether inhibiting HDAC1,2 activity induced any change in global H3K27ac or H3K27me3 on chromatin following DNA damage and during DNA repair. SUDHL4 or Karpas-422 cells with or without exposure to ionizing radiation (IR) were initially treated with DMSO or ACY-957 for 48 hr. Chromatin extracts were prepared from these cells following a 30 min recovery period (the repair phase) and changes in histone modifications were examined by Western blotting.

[7] = test system: Karpas-422 cells; experiment: propidium-iodide / BrdU-PI cell cycle analysis; assay type: cell-based, human; conditions: for progression through the cell cycle: 24 h; for progression through the cell cycle / cell cycle / sub-G1 (dead cells): 2 μM ACY-957, 0.5 μM DZNEP, 0.5 μM GSK126
Procedure: as §3
Cell cycle analysis of propidium-iodide stained cells was performed with fixed cells. […] (C): FACS analysis following BrdU-PI staining of Karpas-422 and SUDHL4 cells was performed following a treatment with 2 μM ACY-957, 50 nM doxorubicin or both for 48 h.
as §4, §5, §6
To test this possibility, cell cycle analysis following treatment of Karpas-422 with ACY-957, doxorubicin, or ACY-957 in combination with doxorubicin was performed.

[8] = test system: Karpas-422 cells; conditions: publically available RNA seq data set of GSK126 treated cells; cited from earlier work
[9] = test system: Hdac1,2 or Hdac3 knockout cell lines; experiment: Western blot of H4K5ac in conditional Hdac1,2 or Hdac3 knockout cells; assay type: cell-based, mouse
Procedure: as §1, with “For” for “(A). For”, “Hdac3.” for “Hdac3. HDAC3-null cells were treated with DMSO or the HDAC1,2 selective inhibitor.”

[10] = test system: Karpas-422 and SUDHL4 cells; experiment: Western blot of histone acetylation marks in whole cell lysates; conditions: 2 μM, 24 hours, vs DMSO
Procedure: Compounds were diluted in DMSO to 50 fold the final concentration and a ten point three fold dilution series was made. The compounds were diluted in assay buffer (50 mM HEPES, pH 7.4, 100 mM KCl, 0.001% Tween-20, 0.05% BSA, 20 μM tris(2-carboxyethyl)phosphine) to 6 fold their final concentration. The HDAC enzymes (purchased from BPS Biosciences) were diluted to 1.5 fold their final concentration in assay buffer. The tripeptide substrate (synthesized in house) and trypsin at 0.05 μM final concentration were diluted in assay buffer at 6 fold their final concentration. Five μl compounds and 20 μl of enzyme were added to wells of a black, opaque 384 well plate in duplicate. Enzyme and compound were incubated together at room temperature for 10 minutes. Five μl of substrate was added to each well, the plate was shaken for 60 seconds and placed into a Victor 2 microtiter plate reader. The development of fluorescence was monitored for 60 min and the linear rate of the reaction was calculated. The IC50 was determined using Graph Pad Prism by a four parameter curve fit.

SMILES | cells with γH2AX foci [4] | progression through the cell cycle [5] | cell cycle / G1 arrest and sub-G1 [5] | global H3K27me3 levels [6] | progression through the cell cycle [7] | cell cycle / sub-G1 (dead cells) ([7]; 48 h) | cell cycle / sub-G1 (dead cells) ([7]; 72 h) | further results
Nc1ccc(-c2ccncc2)cc1NC(=O)c1ccc2c(c1)cc(C1CC1)n2CCN1CCOCC1 [ACY-1071, N-(2-amino-5-(pyridin-4-yl)phenyl)-2-cyclopropyl-1-(2-morpholinoethyl)-1H-indole-5-carboxamide] | – | – | – | – | – | – | – | inhibition of Hdac1,2 activities compared to Hdac3 (IC50 values) [1]: very selectively; DNA damage, quantitation of γH2AX foci [2]: statistically significant increase in DNA damage
Nc1nccc2c1ncn2C1C=C(CO)C(O)C1O (stereo not shown) [DZNep, reference compound] | significant increase in the number of cells with greater than six γH2AX foci | did not affect their progression through the cell cycle | modest increase in dead/sub-G1 SUDHL4 cells | without reducing global H3K27me3 levels | did not affect their progression through the cell cycle | modest increase in the number of dead Karpas-422 cells | larger increase in the number of dead Karpas-422 cells | chromatin associated γH2AX [3]: greater increase in γH2AX levels on chromatin compared to GSK126
CC[C@H](C)n1cc(C)c2c(C(=O)NCc3c(C)cc(C)[nH]c3=O)cc(-c3ccc(N4CCNCC4)nc3)cc21 [GSK126, reference compound] | slight increase in γH2AX foci | did not affect their progression through the cell cycle | did not result in any defect in the cell cycle progression and/or survival | decrease in global H3K27me3 levels; also recorded: significant decrease in H3K27me3 | did not affect their progression through the cell cycle | did not cause any change in the progression | did not result in any defect in the cell cycle progression and/or survival | BLIMP1 expression increase [8]: 2.4 fold; cell cycle / G1 arrest ([5]; 48 h, 2 μM ACY-957, 0.5 μM GSK126): did not cause any change in the progression; incubation required to decrease the viability [7]: 7 days
Nc1ccccc1NC(=O)c1ccc(CNC(=O)OCc2cccnc2)cc1 [MS275, reference compound] | – | – | – | – | – | – | – | H4K5ac compared with deletion of Hdac1,2 [9]: greater increase in H4K5ac than the deletion of just Hdac1,2
O=C(CCCCCCC(=O)Nc1ccccc1)NO [SAHA, Vorinostat, reference compound] | – | – | – | – | – | – | – | H3K23ac levels [10]: increase in H3K23ac
